According to patent US10981926B2 (Janssen Pharmaceutica NV, priority 2016, dated 2021):

What was measured:
[1] = target: T1, wild-type Androgen Receptor (AR-wt) (Homo sapiens (Human), UniProt P10275); assay: LNCaP-AR-wt ANT reporter assay (antagonist mode); assay type: cell-based; settings: for Emax: read-out: LNCaP-AR-wt ANT MAX % Inh; for IC50 / LNCaP-AR-wt ANT pIC50: pIC50 = −Log10(IC50 in Molar); for IC50: read-out: LNCaP-AR-wt ANT pIC50 (converted)
rGABA-gated Cl− channel = assay: GABA-Gated Cl Channel Antagonist Radioligand Binding Assay; design: species or system rat; settings: 10 μM single point, [35S]-TBPS, cerebral cortex membrane homogenates
Experimental: GABA-gated C1 Chanel assays were performed at CEREP according to the following method. Membrane homogenates of cerebral cortex (120 μg protein) were incubated for 120 min at 22° C. with 3 nM […] in the absence or presence of the test compound in a buffer containing 50 mM Na2HPO4/KH2PO4 (pH 7.4) and 500 mM NaCl. Nonspecific binding was determined in the presence of 20 μM picrotoxinin. Following incubation, the samples were filtered rapidly under vacuum through glass fiber filters (GF/B, Packard) presoaked with 0.3% PEI and rinsed several times with ice-cold 50 mM Tris-HCl using a 96-sample cell harvester (Unifilter, Packard). The filters were dried then counted for radioactivity in a scintillation counter (Topcount, Packard) using a scintillation cocktail (Microscint 0, Packard). The results are expressed as a percent inhibition of the control radio ligand specific binding. The standard reference compound is picrotoxinin, which was tested in each experiment at several concentrations to obtain a competition curve from which its IC50 was calculated. In this assay, the following representative compounds disclosed herein had recorded activities at a 10 μM single point concentration in the GABA-gated Cl— Channel Binding Assay.

[2] = target: T1, wild-type Androgen Receptor (AR-wt); assay: LNCaP-AR-wt AG reporter assay (agonist mode); assay type: cell-based; settings: for Emax: read-out: LNCaP-AR-wt AG MAX % Stim; for EC50: read-out: LNCaP-AR-wt AG pEC50 (converted)
[3] = target: T2, F876L mutant Androgen Receptor (AR-F876L) (Homo sapiens (Human), UniProt P10275, F877L); assay: LNCaP-AR-F876L AG reporter assay (agonist mode); assay type: cell-based; settings: for Emax: read-out: LNCaP-AR-F876L AG MAX % Stim; for EC50: read-out: LNCaP-AR-F876L AG pEC50 (converted)
[4] = target: T2, F876L mutant Androgen Receptor (AR-F876L); assay: LNCaP-AR-F876L ANT reporter assay (antagonist mode); assay type: cell-based; settings: for Emax: read-out: LNCaP-AR-F876L ANT MAX % Inh; for IC50 / LNCaP-AR-F876L ANT pIC50: pIC50 = −Log10(IC50 in Molar); for IC50: read-out: LNCaP-AR-F876L ANT pIC50 (converted)
[5] = antagonist mode, maximum % inhibition of R1881 control response over tested concentration range
[6] = agonist mode, maximum % stimulation over tested concentration range
[7] = agonist mode, pEC50 = −Log10(EC50 in Molar)
[8] = maximum % inhibition of R1881 control response over the tested concentration range
[9] = maximum % stimulation (agonist response) over the tested concentration range

T2 sequence (P10275 whole entry F877L): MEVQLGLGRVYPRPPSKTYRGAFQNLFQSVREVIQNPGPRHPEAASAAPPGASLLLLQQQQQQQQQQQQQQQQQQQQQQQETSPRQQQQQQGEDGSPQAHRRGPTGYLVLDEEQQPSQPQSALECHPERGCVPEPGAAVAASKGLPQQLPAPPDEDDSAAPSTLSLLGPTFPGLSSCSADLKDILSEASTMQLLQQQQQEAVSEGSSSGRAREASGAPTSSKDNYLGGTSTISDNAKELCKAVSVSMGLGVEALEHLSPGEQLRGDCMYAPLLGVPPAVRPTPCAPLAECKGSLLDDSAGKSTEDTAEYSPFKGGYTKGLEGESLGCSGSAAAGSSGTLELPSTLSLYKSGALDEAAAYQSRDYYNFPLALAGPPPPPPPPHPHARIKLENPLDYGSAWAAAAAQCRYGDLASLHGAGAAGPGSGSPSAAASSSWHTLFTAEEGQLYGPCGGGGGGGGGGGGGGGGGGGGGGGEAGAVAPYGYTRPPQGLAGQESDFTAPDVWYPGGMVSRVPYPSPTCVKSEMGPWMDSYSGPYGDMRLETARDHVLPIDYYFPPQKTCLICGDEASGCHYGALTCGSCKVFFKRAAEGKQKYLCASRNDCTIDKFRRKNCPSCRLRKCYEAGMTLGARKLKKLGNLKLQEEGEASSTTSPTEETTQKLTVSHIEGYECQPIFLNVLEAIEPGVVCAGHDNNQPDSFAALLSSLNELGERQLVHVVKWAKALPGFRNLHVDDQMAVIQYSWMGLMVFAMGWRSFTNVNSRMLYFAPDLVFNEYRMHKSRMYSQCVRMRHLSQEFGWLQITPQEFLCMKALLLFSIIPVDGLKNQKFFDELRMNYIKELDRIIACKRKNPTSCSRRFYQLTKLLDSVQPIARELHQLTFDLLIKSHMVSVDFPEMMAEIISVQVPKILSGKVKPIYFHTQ
T1 sequence (P10275 whole entry): as the sequence (P10275 whole entry F877L) above, with L877F counted along it

| Compound | Emax [1, 5] [%] | IC50 ([1]; antagonist mode) [nM] | rGABA-gated Cl− channel % inh @10 μM (rGABA-gated Cl− channel) [%] | Emax [2, 6] [%] | EC50 [2, 7] [nM] | Emax [3, 6] [%] | EC50 [3, 7] [nM] | Emax [4, 5] [%] | IC50 ([4]; antagonist mode) [nM] | LNCaP-AR-wt ANT pIC50 ([1]; antagonist mode) | Emax [1, 8] [%] | Emax [2, 9] [%] | Emax [3, 9] [%] | LNCaP-AR-F876L ANT pIC50 ([4]; antagonist mode) | Emax [4, 8] [%] | LNCaP-AR-wt AG pEC50 [2, 7] | LNCaP-AR-F876L AG pEC50 [3, 7] |
| --- | --- | --- | --- | --- | --- | --- | --- | --- | --- | --- | --- | --- | --- | --- | --- | --- | --- |
| N#Cc1ncc(N2C(=O)C3(CCC3)N(c3ccc(OC4CCNC(=O)C4)cc3)C2=S)cc1C(F)(F)F (racemic) [Cpd 195, (R,S)-5-[5-oxo-8-[4-[(2-oxo-4-piperidyl)oxy]phenyl]-7-thioxo-6,8-diazaspiro[3.4]octan-6-yl]-3-(trifluoromethyl)pyridine-2-carbonitrile] | 102 | 186 | 94.2 | 0 | > 15100 | 0.6 | > 15100 | 100 | 174 |  |  |  |  |  |  |  |  |
| N#Cc1ncc(N2C(=O)C3(CCC3)N(c3ccc(O[C@H]4CCN[C@H](CO)C4)cc3)C2=S)cc1C(F)(F)F (racemic) [Cpd 222, 5-[8-(2SR,4SR)[4-[[2-(hydroxymethyl)-4-piperidyl]oxy]phenyl]-5-oxo-7-thioxo-6,8-diazaspiro[3.4]octan-6-yl]-3-(trifluoromethyl)pyridine-2-carbonitrile] | 99.6 | 129 | 61.4 | 2.3 | > 15100 | 0.2 | > 15100 | 99.6 | 81.3 |  |  |  |  |  |  |  |  |
| CN1CCC(Oc2ccc(N3C(=S)N(c4cnc(C#N)c(C(F)(F)F)c4)C(=O)C34CCC4)cn2)CC1 [Cpd 1, 5-[8-[6-[(1-methyl-4-piperidyl)oxy]-3-pyridyl]-5-oxo-7-thioxo-6,8-diazaspiro[3.4]octan-6-yl]-3-(trifluoromethyl)pyridine-2-carbonitrile] |  |  | 6.3 |  | > 15100 |  | > 15100 |  |  | 6.94 | 101 | -0.1 | 0.1 | 7.07 | 101 |  |  |
| Cc1cc(N2C(=O)C3(CCC3)N(c3ccc(OC4CCN(C)CC4)nc3)C2=S)cnc1C#N [Cpd 2, 3-methyl-5-[8-[6-[(1-methyl-4-piperidyl)oxy]-3-pyridyl]-5-oxo-7-thioxo-6,8-diazaspiro[3.4]octan-6-yl]pyridine-2-carbonitrile] |  | 245 | 1.6 |  | > 15100 |  | > 15100 |  | 123 |  | 101 | 0.5 | 0.2 |  | 99.9 |  |  |
| COc1cc(N2C(=O)C3(CCC3)N(c3ccc(OC4CCN(C)CC4)cc3)C2=S)cnc1C#N [Cpd 23, 3-methoxy-5-[8-[4-[(1-methyl-4-piperidyl)oxy]phenyl]-5-oxo-7-thioxo-6,8-diazaspiro[3.4]octan-6-yl]pyridine-2-carbonitrile] |  |  | 4.8 |  | > 15100 |  | > 15100 |  |  | 6.52 | 102 | 0.4 | 0.4 | 6.67 | 101 |  |  |
| CN1CCC(Oc2ccc(N3C(=S)N(c4cnc(C#N)c(Cl)c4)C(=O)C34CCC4)cc2)CC1 [Cpd 24, 3-chloro-5-[8-[4-[(1-methyl-4-piperidyl)oxy]phenyl]-5-oxo-7-thioxo-6,8-diazaspiro[3.4]octan-6-yl]pyridine-2-carbonitrile] |  | 170 | 25.4 |  | > 15100 |  | > 15100 |  | 83.2 |  | 101 | 0.6 | 0.5 |  | 101 |  |  |
| N#Cc1ncc(N2C(=O)C3(CCC3)N(c3ccc(O[C@H]4C[C@H]5CC[C@@H](C4)N5)cc3)C2=S)cc1C(F)(F)F [Cpd 29, 5-[8-[4-[[(1R,3r, 5S)-8-azabicyclo[3.2.1]octan-3-yl]oxy]phenyl]-5-oxo-7-thioxo-6,8-diazaspiro[3.4]octan-6-yl]-3-(trifluoromethyl)pyridine-2-carbonitrile] |  |  | 39.9 |  |  |  |  |  |  | 6.05 | 91.5 | 1.5 | 3.4 | 6.40 | 101 | <4.82 | <4.82 |
